Source: patent US10030064B2, “Mammalian cell culture processes for protein production” (priority 2009, dated 2018)

Legend:
Type in all cases: cell-based, Chinese hamster
[1] = system: CHO cells; assay: Fed-batch 10-L bioreactor CHO culture: VCD, viability, titer
Description: Bioreactor experiments were performed in 10-L bioreactors (Sartorius Stedim Biotech, France) with starting working volumes of 5 L. Agitation, pH and dissolved oxygen were controlled at 150 rpm, 7.05, and 50% air saturation, respectively. Temperature was initially controlled at 37° C. and was shifted to lower temperature during the culture to extend the culture viability. The bioreactors were operated in a batch fed mode and were fed daily starting on day 3 with the proprietary feed medium to maintain adequate concentrations for glucose and other nutrients. Samples were taken during the cell culture process and analyzed for cell density, cell viability, substrates and metabolites.
(§1) The eluted protein was quantified using a 10-level standard curve.
Different from shake flask runs, bioreactor runs were extended to 14 days, the culture temperature was shifted to a lower temperature during the late exponential phase of the culture, and a proprietary feeding medium was used instead of feeding only glucose and glutamine.

[2] = system: CHO cells; assay: Fed-batch 7-L, 500-L and 5000-L bioreactors with dexamethasone in the feed medium (Example 5)
Description: The CHO cell line used in this study was subcloned from DG44 parental cells and cultured in a proprietary growth medium.
Bioreactor experiments were performed in 7-L, 500-L and 5000-L bioreactors with starting working volumes around 3 L, 300 L and 3000 L, respectively. All the bioreactor runs started at 37° C. and shifted to lower temperature when cells entered production phase in order to extend the cell culture period. pH, and dissolved oxygen were maintained at 7.05, and 50% air saturation. Agitation rates for 7-L, 500-L and 5000-L scales are 180, 75 and 60 rpm respectively. All the bioreactor experiments were conducted in a fed batch mode with daily feeding of a protein-free medium in order to maintain the glucose and other nutrients at certain levels. […] Samples were taken during the cell culture process and analyzed for cell density, cell viability, substrates and metabolites.
The titer, sialic acid and HMW content assay were performed as described in the previous examples.

[3] = system: CHO cell line with CTLA4Ig secretion; assay: Shake flask culture of CHO cell line secreting CTLA4Ig: VCD and viability (Example 4)
Description: The CHO cell line used in this study was originally subcloned from DG44 parental cells and cultured in a proprietary chemical-defined growth medium.
The experiments were carried out in 250-mL shake flasks (VWR international) with starting volumes of 100 mL and initial cell densities of 6×10^5 cells/mL. The cultures were placed on a shaker platform (VWR international) at 150 rpm and maintained at 37° C. and 6% CO2 for ten days. The cultures were sampled daily and the pH was adjusted as needed using 1M sodium carbonate and fed with glucose and glutamine every two days in order to maintain them at adequate levels. […] Cell density and viability were measured offline using a Cedex automated cell counter (Innovatis AG, Bielefeld, Germany). Culture pH and concentrations for glucose and glutamine were measured off-line using a Bioprofile Analyzer 400 (Nova Biomedical Corporation, Waltham, Mass.). Supernatants from culture harvests were collected for analysis of sialic acid content and HMW level.
Cell viability for the untreated cultures decreased rapidly after Day 6 (FIG. 16B) and percent viability on day 10 was only 64.5%.

[4] = system: CHO cells; assay: Shake flask CHO culture in serum free medium: viable cell density, viability, growth rate, productivity (Example 3)
Description: The CHO cell line used in this study was subcloned from DG44 parental cells and cultured in a proprietary chemically-defined growth medium.
The experiments were carried out in 250-mL shake flasks (VWR international) with starting volumes of 100 mL and initial cell densities of 6×10^5 cells/mL. The cultures were placed on a shaker platform (VWR international) at 150 rpm and maintained at 37° C. and 6% CO2 for ten days. The cultures were sampled daily and the pH adjustment using 1M sodium carbonate, and fed with glucose and glutamine every two days in order to maintain them at certain levels. Cell density and viability were measured off-line a Bioprofile Analyzer 400 (Nova Biomedical Corporation, Waltham, Mass.).
as §1

[5] = system: CHO cells secreting an IgG-fusion protein; assay: Shake flask CHO culture: SEC-HPLC of high molecular weight (HMW) species in secreted IgG-fusion protein
Description: The CHO cell line used in this study was originally subcloned from DG44 parental cells and cultured in a protein-free proprietary growth medium. The host cells were genetically engineered to secrete an IgG-fusion protein under the control of CMV promoter.
The experiments were carried out in 250-mL shake flasks (VWR international) with starting volumes of 100 mL and initial cell densities of 6×10^5 cells/mL. Shake flasks were placed on a shaker platform (VWR international) at 150 rpm rotating speed. Cells were cultured under standard humidified condition at 37° C. and 6% CO2, for a ten-day duration with daily pH adjustment using 1M sodium carbonate, and fed with glucose and glutamine every two days in order to maintain them at certain level. Cell density, cell viability and substrates/metabolites were offline-analyzed by an automated cell counting system Cedex (Innovatis AG, Bielefeld, Germany) and a Bioprofile Analyzer 400 (Nova Biomedical Corporation, Waltham, Mass.). Supernatant from each culture harvest was collected for SEC analysis.
The main components of HMW species were dimers and trimers formed covalently or non-covalently and categorically considered to be protein aggregates.

[6] = day 14, 1 μM DEX added on day 2
[7] = day 14, 1 μM DEX added on day 7
[8] = 10 μM DEX added two days after inoculation
[9] = treatment concentration 0.1 μM, added two days after inoculation
[10] = treatment concentration 1 μM, added two days after inoculation
[11] = treatment concentration 10 μM, added two days after inoculation

Q: What does the source list for `C[C@@H]1C[C@H]2[C@@H]3CCC4=CC(=O)C=C[C@]4(C)[C@@]3(F)[C@@H](O)C[C@]2(C)[C@@]1(O)C(=O)CO` [DEX, dexamethasone]?
A: maximum cell density ([1]; 1 μM DEX added on either day 2 or day 7, day 8): approximately 8.3 ×10^6 cell/mL; Cell viability ([1]; day 6, all conditions): 94%; Normalized protein titer ([1]; day 7, prior to the maximum VCD): approximately 5.5; increase of day 14 normalized titer vs without DEX ([1]; day 14): 20%; Final VCD [1, 6]: 4.1 ×10^6 cell/mL; percent viability [1, 6]: 55%; Final VCD [1, 7]: 3.5 ×10^6 cell/mL; percent viability [1, 7]: 39%; harvest normalized titer ([1]; day 14, both bioreactors with DEX): 12.5; Day 14 average viability ([2]; 7-L scale): 88%; Day 14 titer (normalized value) ([2]; 7-L scale): 13.2; Peak sialic acid level (normalized value) ([2]; 7-L scale): 16.0; Day 14 average viability ([2]; 500-L scale): 84%; Day 14 titer (normalized value) ([2]; 500-L scale): 11.6; Peak sialic acid level (normalized value) ([2]; 500-L scale): 18.0; Day 14 average viability ([2]; 5000-L scale): 91%; Day 14 titer (normalized value) ([2]; 5000-L scale): 13.6; Peak sialic acid level (normalized value) ([2]; 5000-L scale): 19.0; drop of sialic acid by the end of the runs ([2]; all scales): approximately 2.6 units; final cell viability (day 10) ([3]; 0.001 μM DEX added day 2): 75.5%; final cell viability (day 10) ([3]; 10 μM DEX added day 2): 82.3%; final cell viability (day 10) ([4]; 0.01 μM DEX added two days after inoculation): 53.1%; percent increase of cell viability induced by DEX ([4]; 0.1 μM DEX, with 1 μM RU-486): 4.7%; percent increase of cell viability induced by DEX ([4]; 0.1 μM DEX, without RU-486): 30.5%; maximum specific productivity (normalized) ([4]; 1 μM DEX added day 2): 7.0±0.6 ×10^−9; normalized volumetric productivity ([4]; 1 μM DEX added day 2, same for all cultures): 6.5; reduction in cell growth rates compared to control ([4]; 1 μM DEX added day 2, the day after DEX addition): ~30%; viability on day 10 ([4]; 1 μM DEX added on day 0): 63%; viability on day 10 ([4]; 1 μM DEX added on day 2): 68%; viability on day 10 ([4]; 1 μM DEX added on day 4): 72%; viability on day 10 ([4]; 1 μM DEX added on day 6): 74%; percent increase of cell viability induced by DEX ([4]; 1 μM DEX, with 1 μM RU-486): 5.7%; percent increase of cell viability induced by DEX ([4]; 1 μM DEX, without RU-486): 32.6%; Peak VCD [4, 8]: 6.5 ×10^6 cell/mL; final cell viability (day 10) [4, 8]: 64.0%; Final VCD [4, 9]: 7.64 ×10^6 cells/mL; Peak VCD [4, 9]: 7.99 ×10^6 cells/mL; Viability (final, day 10) [4, 9]: 72.3%; Final VCD [4, 10]: 8.40 ×10^6 cells/mL; Peak VCD [4, 10]: 9.02 ×10^6 cells/mL; Viability (final, day 10) [4, 10]: 75.8%; Final VCD [4, 11]: 7.38 ×10^6 cells/mL; Peak VCD [4, 11]: 7.49 ×10^6 cells/mL; Viability (final, day 10) [4, 11]: 82.3%; decrease of percentage of HMW species ([5]; 0.1 μM DEX alone): approximately 17%; reduction of protein aggregation (percentage of HMW species) ([5]; 1 μM DEX added day 2, supernatant day 10, vs control): 15%
